Test system: hairless mice
Assay: Evaluation of wrinkle-reducing effect using photoaging model (UVB-irradiated hairless mice, replica wrinkle score)
Type: in vivo
Settings: 0.5% by mass in ethanol (lotion), 100 μL once a day for 8 weeks on dorsal portions after 10 weeks of UVB irradiation; replicas scored visually 1 to 6; vs ethanol control
Method: A wrinkle-reducing effect of Cosmetic 1 above was evaluated in a test using a photoaging model.
A total of ten hairless mice, which were six-week-old at the time of the start of a test, were used and divided into two groups each consisting of five mice, i.e., a control group (ethanol solvent administration group) and a sample administration group. The dorsal portions of the hairless mice were irradiated with UVB at a frequency of once a day and three times a week for 10 consecutive weeks to induce photoaging. The UVB irradiation amount was set to 50 mJ/cm^2 for the first week and to 100 mJ/cm^2 on week 2 or later.
In the sample administration group, Cosmetic 1 above was administered to the dorsal portions of the hairless mice. Cosmetic 1 started to be administered to the dorsal portions of the hairless mice on the following day after the completion of the UVB irradiation for 10 weeks, and administered at a dose of 100 μL once a day for 8 weeks. In the control group, the same treatments were performed as those in sample administration group except that ethanol was administered in place of Cosmetic 1 (Lotion 1) in Table 1. […] The scoring operation was performed by three measurers separately and evaluated visually with scores of 1 to 6 at intervals of 0.5. An average value of the results was calculated.

How did the “wrinkle-reducing effect (wrinkle score)” value turn out when `CSCC(NC(=O)c1ccc(C)cc1)C(=O)O` (stereo not shown) [Compound 2, [S-methyl-N-toluyl]cysteine] was run?
The value was “excellent wrinkle-reducing effects”.
